Data: patent US11858913B2, “Bicyclic pyridazinones and methods of use thereof” (ALIGOS THERAPEUTICS, INC., priority 2020, dated 2024)

Biological target: T1, human thyroid receptor beta ligand-binding domain (LBD) (Homo sapiens, UniProt P10828)
T1 construct: purchased Invitrogen
T1 sequence (P10828 217-461 limits assumed): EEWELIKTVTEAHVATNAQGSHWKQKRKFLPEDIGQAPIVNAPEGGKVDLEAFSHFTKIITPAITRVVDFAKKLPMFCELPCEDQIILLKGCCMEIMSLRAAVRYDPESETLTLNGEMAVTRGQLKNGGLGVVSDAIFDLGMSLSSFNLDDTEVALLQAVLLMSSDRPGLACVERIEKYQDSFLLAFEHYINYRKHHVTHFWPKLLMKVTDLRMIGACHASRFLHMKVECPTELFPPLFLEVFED
Experiment: THR Biochemical Assay (Assay 1): TR-FRET thyroid receptor beta coactivator assay
Conditions: GST-tagged THR-beta LBD 1 nM, fluorescein SRC2-2 coactivator peptide 200 nM, 1 hr at rt, TR-FRET ratio 520:495; read-out: Assay 1 (EC50, THR-beta agonist activity)
From the text: The TR-FRET thyroid receptor beta coactivator assay was used with slight, optimized modifications of the manufacturer's protocol (Invitrogen). The assay uses a terbium-labeled anti-GST antibody, a glutathione-S-transferase (GST) tagged human thyroid receptor, beta or alpha, ligand-binding domain (LBD), and a fluorescein labeled SRC2-2 coactivator peptide. The antibody interacts with the LBD, where the agonist also binds, resulting in increased affinity for the SRC2-2 coactivator peptide causing energy transfer […] the acceptor fluorophore and a FRET emission shift from 495 to 520 nm. The energy transfer was detected as an increase in the fluorescence emission of the fluorescein acceptor, and a decrease in the fluorescence emission of the terbium donor. The assay was performed in a 384-well black plate in a final volume of 20 μL. Serial dilution of various test agonists was performed in DMSO (1% final DMSO concentration) and added to the test plate. […] The TR-FRET was then measured on a Victor multilabel reader (Perkin Elmer) using an excitation wavelength of 340 nm with emission filters of 495 nm and 520 nm. The assay was quantified by expressing a ratio (520:495) of the intensities, and the resulting activation curves; EC50 values were generated using a sigmoidal dose response (variable slope) equation in GraphPad™ Prism 8.0.

Row | EC50 [µM] | SMILES
1 | < 0.05 | CC1CCc2c(Oc3c(Cl)cc(-n4nc(N)c(=O)[nH]c4=O)cc3Cl)n[nH]c(=O)c21 (single isomer, unassigned) [Compound 1a, 6-amino-2-(3,5-dichloro-4-((7-methyl-1-oxo-2,5,6,7-tetrahydro-1H-cyclopenta[d]pyridazin-4-yl)oxy)phenyl)-1,2,4-triazine-3,5(2H,4H)-dione]
2 | 0.05 to 0.25 | CC1CCc2c(Oc3c(Cl)cc(-n4nc(N)c(=O)[nH]c4=O)cc3Cl)n[nH]c(=O)c21 (single isomer, unassigned) [Compound 1b, 6-amino-2-(3,5-dichloro-4-((7-methyl-1-oxo-2,5,6,7-tetrahydro-1H-cyclopenta[d]pyridazin-4-yl)oxy)phenyl)-1,2,4-triazine-3,5(2H,4H)-dione]
